Experimental findings from ChEMBL document CHEMBL1201862, “PubChem BioAssay data set” (2004) are described below.

Assay in all cases: growth of human tumour cells (NCI), 48 h
Experiment [1] deals with HT-29.
For experiment [2], the system named is Malme-3M.
Experiment [3] concerns K562.
In experiment [4] the test system is RXF 393.
The test system of experiment [5] is SK-MEL-28.
The subject of experiment [6] is SK-MEL-5.
Experiment [7] has as its system IGROV-1.
The test system of experiment [8] is SF-268.
The test system of experiment [9] is OVCAR-4.
The subject of experiment [10] is TK-10.
For experiment [11], the system named is COLO 205.
For experiment [12], the system named is HOP-62.
Experiment [13] relates to SNB-19.
For experiment [14], the system named is OVCAR-8.
Experiment [15] relates to 786-0.
The test system of experiment [16] is SNB-75.
For experiment [17], the system named is HCC 2998.

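Each compound was tested at five concentrations against cells in 96-well plates for 48 hours. At the GI50, growth is halved.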 The source made the active and inactive calls. Cut-off read from the data, not from the text of the source: active = GI50 up to about 1.1 µM and inactive = higher.

In the case of `O=[N+]([O-])c1cc(Cl)ccc1S(=O)(=O)c1ccc(Cl)cc1[N+](=O)[O-]`, the GI50 in [1] is 16.8 µM (inactive); in experiment [2] it was 13.5 µM (inactive); in [3] it was 28.2 µM (inactive); in [4], 15.1 µM (inactive); in experiment [5] it was 18.1 µM (inactive); in experiment [6], 14.6 µM (inactive). For the same compound, the GI50 is 15.9 µM (inactive) in experiment [7]; 15 µM (inactive) in experiment [8]; 17.9 µM (inactive) in experiment [9]; 17.6 µM (inactive) in [10]; 17 µM (inactive) in experiment [11]; 21.3 µM (inactive) in experiment [12]. For the same compound, the GI50 in experiment [13] was 17.4 µM (inactive); in [14] it was 16 µM (inactive); in [15], 15.5 µM (inactive); in experiment [16] it was 15.7 µM (inactive).
Regarding `C=CCCC(O)c1cc(C)c(O)c(C)c1` (stereo not given), the GI50 in [2] was > 100 µM (inactive); in experiment [3], > 100 µM (inactive); in experiment [4], 53.3 µM (inactive); in [5] it was > 100 µM (inactive); in experiment [6], > 100 µM (inactive); in experiment [17], > 100 µM (inactive). Besides, the GI50 in [7], in experiment [8], in experiment [10], in experiment [11], in [12] and in [13] was > 100 µM (inactive) in each case. Further, the figures for the GI50 in experiment [14], in experiment [15] and in experiment [16] were > 100 µM (inactive), > 100 µM (inactive) and 60.1 µM (inactive), respectively.
`CSc1nc(C)cc(=O)n1C1OC(COC(C)=O)C(OC(C)=O)C(OC(C)=O)C1OC(C)=O` (stereo not given): the GI50 in [1], in experiment [2], in [3], in [5], in experiment [6] and in [17] was > 100 µM (inactive) each time. The GI50 in experiment [7] was > 100 µM (inactive); in [8], > 100 µM (inactive); in experiment [9] it was > 100 µM (inactive); in [10], > 100 µM (inactive); in [11] it was > 100 µM (inactive); in experiment [12], > 10 µM (inactive). Also, the GI50 was > 100 µM (inactive) in experiment [13], > 100 µM (inactive) in [14], > 100 µM (inactive) in experiment [15] and 61.5 µM (inactive) in experiment [16].
Regarding `O=C(CCC(=O)Nc1ccc(Cl)c(Cl)c1)CC(=O)c1ccc(F)cc1`, the GI50 in [1], in experiment [2], in [3], in [4], in experiment [5] and in experiment [6] was > 100 µM (inactive) in each case. Besides, the GI50 in experiment [17], in experiment [7], in experiment [8], in experiment [9], in [11] and in experiment [12] was > 100 µM (inactive) each time. Also, the GI50 in [13], in experiment [14] and in experiment [15] was > 100 µM (inactive) each time.
Take `Cc1nnc(N/N=C(/C(=O)C(C#N)c2ccc(Cl)cc2)C(C#N)c2ccc(Cl)cc2)n1N` (stereo not given): the GI50 in experiment [1] was 20.4 µM (inactive); in [2], 19.4 µM (inactive); in [3], 17.5 µM (inactive); in experiment [4], 17.7 µM (inactive); in experiment [5], 18.7 µM (inactive); in experiment [6] it was 16 µM (inactive). Also, the GI50 in experiment [17] is 19.4 µM (inactive); in experiment [8], 24.1 µM (inactive); in experiment [9], 18.1 µM (inactive); in experiment [10], 20 µM (inactive); in [11], 17.7 µM (inactive); in experiment [12], 16.6 µM (inactive). The GI50 in experiment [13] is 14.6 µM (inactive); in experiment [14] it was 20 µM (inactive); in experiment [15], 17.4 µM (inactive); in experiment [16] it was 16.4 µM (inactive).
For `Clc1ccc2c(c1)C1C(CO2)C(c2ccccc2)=NN1c1ccccc1` (stereo not given), the GI50 in [1] is 76.9 µM (inactive); in [2], 43 µM (inactive); in experiment [3], 26.2 µM (inactive); in experiment [4], 24.2 µM (inactive); in [5], 54.1 µM (inactive); in experiment [17], 43.8 µM (inactive). Also, the GI50 is 22.9 µM (inactive) in experiment [7]; 42.5 µM (inactive) in [8]; 82.8 µM (inactive) in experiment [10]; 71.3 µM (inactive) in [11]; 37 µM (inactive) in experiment [12]; 34.5 µM (inactive) in experiment [13]. In addition, the GI50 in experiment [14] is 28.6 µM (inactive); in [15], 24.9 µM (inactive); in [16], 20.1 µM (inactive).
As for `CCCCCCCCCCCCCCCC(=O)OCC1OC(n2cc(F)c(=O)[nH]c2=O)C(NC(=O)OCc2ccccc2)C(O)C1O` (stereo not given), the GI50 in experiment [1] is 17.8 µM (inactive); in experiment [2], 2.79 µM (inactive); in experiment [3], 14.5 µM (inactive); in [6], 18.2 µM (inactive); in experiment [17] it was 16.3 µM (inactive); in [7], 20.9 µM (inactive). Further, the GI50 in experiment [8] is 23.4 µM (inactive); in experiment [9], 20 µM (inactive); in [10], 19.6 µM (inactive); in experiment [11] it was 17.4 µM (inactive); in [13] it was 16.8 µM (inactive); in experiment [14], 17.7 µM (inactive). Further, the values for the GI50 in [15] and in experiment [16] were 18.7 µM (inactive) and 19.8 µM (inactive), respectively.
On to `CC1(C)NC(=O)N(CCCCCCN2C(=O)NC(C)(C)C2=O)C1=O`, for which the GI50 in experiment [1], in experiment [2], in [3], in experiment [4], in [5] and in experiment [17] was > 100 µM (inactive) throughout. Also, the GI50 was > 100 µM (inactive) in experiment [7]; > 100 µM (inactive) in experiment [8]; > 100 µM (inactive) in experiment [9]; > 100 µM (inactive) in experiment [10]; > 100 µM (inactive) in experiment [11]; 97.9 µM (inactive) in [13]. Further, the GI50 in [14], in experiment [15] and in [16] was > 100 µM (inactive) throughout.
On to `NCCOCCOCC(=O)O`, for which the GI50 in [1], in [2], in experiment [3], in experiment [4], in [5] and in experiment [6] was > 100 µM (inactive) in each case. For the same compound, the GI50 in experiment [17], in [7], in experiment [8], in experiment [9], in experiment [10] and in experiment [13] was > 100 µM (inactive) in each case. Moreover, the GI50 in experiment [14], in experiment [15] and in experiment [16] was > 100 µM (inactive) throughout.
On to `O=C1C2Cc3ccccc3CN2C(=O)N1CCN1CCCC1` (stereo not given), for which the GI50 in experiment [2], in [3], in experiment [5], in experiment [6], in experiment [17] and in [7] was > 100 µM (inactive) in each case. The GI50 in experiment [8], in [9], in experiment [10], in [11], in [12] and in experiment [13] was > 100 µM (inactive) in each case. Moreover, the GI50 in [14] and in [15] was > 100 µM (inactive) throughout.
For `COc1cc(/C=C/C(=N\NC(=O)c2ccccc2)c2sc(Nc3ccc(Cl)c(Cl)c3)nc2C)ccc1O`, the GI50 in experiment [1] is 28.9 µM (inactive); in experiment [2], 29.4 µM (inactive); in experiment [3] it was 25.2 µM (inactive); in experiment [4], 39.7 µM (inactive); in [5], 40.6 µM (inactive); in [17] it was 28.8 µM (inactive). In addition, the GI50 was 35.6 µM (inactive) in experiment [7]; 38.6 µM (inactive) in experiment [8]; 33.4 µM (inactive) in experiment [9]; 37.5 µM (inactive) in experiment [10]; 34 µM (inactive) in experiment [11]; 38.4 µM (inactive) in experiment [12]. Also, the GI50 in experiment [13] was 31.6 µM (inactive); in [14], 33.3 µM (inactive); in experiment [15] it was 41.2 µM (inactive); in experiment [16], 33.3 µM (inactive).
As to `C=C1C2C[C@@H]3OC4CC5O[C@]6(CC5OC4C(C)C3OC(=O)CC3CC[C@@H]4OC5C7OC8C[C@](CCC9CC(=C)[C@H](CCC(C[C@H]1C)O2)O9)(OC7C4O3)O[C@@H]85)C[C@@H]1O[C@@]2(CC(C)[C@@H]3OC(CC(=O)CCO)C(O)C[C@@H]3O2)CC(C)[C@@H]1O6` (stereo not given in full), the GI50 in experiment [2], in [3], in experiment [6], in experiment [17], in experiment [7] and in experiment [8] was < 0.001 µM (active) in each case. For the same compound, the GI50 in [9], in [11], in experiment [12], in experiment [13], in [14] and in experiment [15] was < 0.001 µM (active) in each case.
On to `O=C(CO)CC(=O)C(=O)Nc1ccccc1`, for which the GI50 in experiment [1], in experiment [2], in experiment [3], in experiment [4], in [5] and in experiment [6] was > 100 µM (inactive) in each case. For the same compound, the GI50 in [17], in [7], in experiment [8], in experiment [9], in [10] and in experiment [11] was > 100 µM (inactive) throughout. Also, the GI50 in [12], in [13], in experiment [14] and in [15] was > 100 µM (inactive) in each case.
